Measurements as given in patent publication US12247033B2, “Triazole-substituted imidazo[1,2-a]pyrimidines as cGAS inhibitors” (GlaxoSmithKline Intellectual Property Development Limited, priority 2022, dated 2025).
pIC50: −log10 of the molar value. Counter-ions that a name gives are not always drawn.

Experiments:
human CGAS (157-522) = human CGAS (157-522) (Homo sapiens, UniProt Q8N884); assay: biochemical;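 also: biochemical enzyme reaction, 2′3′-cGAMP product measured by RapidFire mass spectrometry (MRM) normalised to c-di-UMP internal standard, inhibition of product formation relative to high and low control wells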
Experimental: Compounds were serially diluted 2, 3, or 4-fold in neat DMSO to generate 11-point dose response curves and then 250 nL compound or DMSO solution was transferred to Greiner 384-well V-bottom assay plates (Catalog #781280) using an Echo acoustic dispenser (Labcyte). A solution of 150 μM ATP, 150 μM GTP, 20 μM pppGpA (GTP-2′5′-AMP, custom synthesis from ChemGenes), and 10 μg/mL sheared salmon sperm DNA (Sigma, Catalog #D1626) in assay buffer (20 mM Trizma, pH 7.5, 10 mM magnesium chloride, 0.3 mM CHAPS, and 0.01% (w/v) bovine serum albumin) was added to columns 1-17, 19-24 of the plate at 12.5 μL/well using a Combi liquid handler (ThermoFisher). A 12.5 μL/well low control solution containing 150 μM ATP, 150 μM GTP, 20 μM pppGpA in assay buffer was added to column 18 using the Combi. A 12.5 μL/well solution of 10-100 nM human CGAS (157-522) in assay buffer was then added to all wells of the plate using the Combi. […] Reactions were quenched by added 50 μL/well of 0.5% (v/v) trifluoroacetic acid (TFA) in mass spectrometry grade deionized water containing 5 μM cyclic-di-UMP (ci-di-UMP; Invivogen Catalog #tlrl-cdu) as the internal standard (IS). Plates were centrifuged for 1 min and then quenched reactions were analyzed using a RF-MS 300 system operating in a Multiple Reaction Monitoring (MRM) detection mode.
Samples (10 μL injection volume) were passed over a silica C18/type C solid phase extraction (SPE) cartridge for analyte (2′3′-cyclic guanosine monophosphate adenosine monophosphate (2′3′-cGAMP), product of biochemical reaction)/pppGpA/c-di-UMP IS adsorption. Adsorbed samples were desalted for 3000 ms using a 100% water eluent A/desalting solution. Afterwards, desalted samples were eluted using a 0.5% TFA in 20%/80% acetonitrile/water eluent B/elution solution directly into either a Sciex 4000, 5000 or 5500 triple quadrupole mass spectrometer (QQQ-MS) for MRM analyte/IS detection. QQQ-MS detection conditions were as follow: scan type: MRM; curtain (CUR) gas: 30 psi; nebulizer (GS1) gas: 50 psi; drying (GS2) gas: 60 psi; collisionally activated dissociation (CAD) gas: 12 relative setting; precursor ion (Q1) masses: 2′3′-cGAMP: m/z 675.1 Da/pppGpA: m/z 853.0 Da/c-di-UMP: m/z 613.1 Da; fragment ion (Q3) masses: 2′3′-cGAMP: m/z 524.1 Da/pppGpA: m/z 702.0 Da/c-di-UMP: 307.1 Da; declustering potentials (DPs): 2′3′-cGAMP: +81 V/pppGpA: +85 V/c-di-UMP: +85 V; entrance potential: +10 V (all analytes); collision energies (CEs): 2′3′-cGAMP: +33 V/pppGpA: +36 V/c-di-UMP: +35 V; collision cell exit potential (CXP): +10 V (all analytes); interface heater (Sciex 4000/5000 only): on; Q1 resolution: unit (all analyte); Q3 resolution: unit (all analytes). The area under the curve (AUC) for all analytes was obtained using the RapidFire Integrator software application to calculate AUC-2′3′-cGAMP/AUC-c-di-UMP intensity ratio. Percent product formation was calculated by comparison to column 6 (high control)/column 18 (low control) responses. The % product inhibition was calculated as follows:
[formula] where A is the minimum response, B is the maximum response, C is the log10*XC50, D is the slope factor, and x is the log10 compound concentration [M] in ABASE XE.

CGAS = CGAS whole blood cytokine release assay (384-well, BacMam stimulation, IP-10 by cytometric bead array); format: cell-based; details: Homo sapiens, 6 h; read-out: hWB pXC50 (converted)
Experimental: Blood collection: Blood was collected in a tube containing 10% Sodium Heparin (5 ml/45 ml blood final).
Protocol for CGAS Whole Blood Cytokine Release Assay: Compounds serial diluted at 1:3 were provided at 150 nL per well, in a 384 well polypropylene microplate (cat. 781280; Greiner Bio-One, Frickenhausen, Germany). 5 μL of PBS/20% Null BacMam was dispensed to all wells except for column 18 on a Multidrop Combi (Thermo Scientific, Waltham, MA). 5 uL of PBS was dispensed into column 18. The Bravo (Agilent, Santa Clara, CA) was used to transfer 45 uL of donor derived blood into the compound plates. The Bravo protocol mixed the blood and compound/PBS 5 times. The plates were incubated at 37° C., 5% CO2, for 6 hours. At the 6 hour mark the plates were removed and centrifuged for 10 minutes at 3000 RPM. 3 uL of supernatant was transferred from the plate to a 384 well NBS microplate (cat. 4513; Corning Life Sciences, Corning, NY). These plates were sealed with adhesive foil and stored in a −80 freezer until ready for analysis.
For cytokine detection, Human IP-10 BD cytometric bead array (CBA) beads (BD Biosciences, Franklin Lakes, NJ) were used. Capture bead solution was prepared by performing a 1:50 dilution of the IP-10 capture bead stock solution in BD diluent for serum/plasma (cat. 51-9003991 BD Biosciences, Franklin Lakes, NJ). 2 μL of this solution was added per well to the assay microplates which were then sealed with adhesive foil and incubated at room temperature for 2 h in the dark. Detection reagent was further prepared by performing a 1:50 dilution of the detection reagent stock solution. 2 μL of detection reagent was added per well and microplates were sealed with adhesive foil and incubated at room temperature in the dark for 1 h. After the 1 h incubation 3 uL of BD CBA wash buffer was added per well of the microplates. Data were acquired on an iQue Screener flow cytometer. The iQue used fluorescence detection to quantify the inhibition of IP-10 present in the sample wells. A sip time of 1 second per sample was used. The blue laser with excitation of 488 nm and emission filters 585/40 nm were used to capture the mean and median of IP-10 with the detector in logarithmic mode (FL2-H).
All data analysis was carried out in IDBS ActivityBase XE.

Sequence of human CGAS (157-522) (Q8N884 157-522): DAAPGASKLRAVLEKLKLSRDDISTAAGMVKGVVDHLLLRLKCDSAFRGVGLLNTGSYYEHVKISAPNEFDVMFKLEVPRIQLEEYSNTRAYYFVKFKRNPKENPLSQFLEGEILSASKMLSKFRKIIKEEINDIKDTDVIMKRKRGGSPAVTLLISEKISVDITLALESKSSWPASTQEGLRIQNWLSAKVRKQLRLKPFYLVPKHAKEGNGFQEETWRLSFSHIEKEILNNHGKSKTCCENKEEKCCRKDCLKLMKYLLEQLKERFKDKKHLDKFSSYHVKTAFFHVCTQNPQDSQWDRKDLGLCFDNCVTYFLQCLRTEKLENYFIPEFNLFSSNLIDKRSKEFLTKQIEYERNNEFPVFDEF

| Structure (SMILES) | pIC50 (human CGAS (157-522)) | IC50 (CGAS) [nM] |
| --- | --- | --- |
| FC(F)c1ccn2c(-c3cnc[nH]3)c(-c3nc(C(F)(F)F)n[nH]3)nc2n1 [Example 95, 5-[7-(difluoromethyl)-3-(1H-imidazol-5-yl)imidazo[1,2-a]pyrimidin-2-yl]-3-(trifluoromethyl)-1H-1,2,4-triazole] | 8.00 | 398 |
| COCc1cn2c(-c3cnc[nH]3)c(-c3nc(C(F)(F)F)n[nH]3)nc2nc1C(F)(F)F [Example 114, 5-[3-(1H-imidazol-5-yl)-6-(methoxymethyl)-7-(trifluoromethyl)imidazo[1,2-a]pyrimidin-2-yl]-3-(trifluoromethyl)-1H-1,2,4-triazole] | 8.40 | 1000 |
| FC(F)(F)c1n[nH]c(-c2nc3ncc(COC4CCC4)cn3c2-c2c[nH]cn2)n1 [Example 157, 5-[6-(cyclobutoxymethyl)-3-(1H-imidazol-4-yl)imidazo[1,2-a]pyrimidin-2-yl]-3-(trifluoromethyl)-1H-1,2,4-triazole] | 8.60 | 251 |
| CCOCc1cnc2nc(-c3nc(C(F)(F)F)n[nH]3)c(-c3cnc[nH]3)n2c1 [Example 79, 5-[6-(ethoxymethyl)-3-(1H-imidazol-5-yl)imidazo[1,2-a]pyrimidin-2-yl]-3-(trifluoromethyl)-1H-1,2,4-triazole] | 8.50 | 100 |
| CCOCc1cn2c(-c3cnc[nH]3)c(-c3nc(C(F)F)n[nH]3)nc2nc1C(F)(F)F [Example 117, 3-(difluoromethyl)-5-[6-(ethoxymethyl)-3-(1H-imidazol-5-yl)-7-(trifluoromethyl)imidazo[1,2-a]pyrimidin-2-yl]-1H-1,2,4-triazole] | 8.20 | 3160 |
| N#Cc1cnc2nc(-c3nc(C(F)(F)F)n[nH]3)c(-c3cnc[nH]3)n2c1 [Example 110, 3-(1H-imidazol-5-yl)-2-[3-(trifluoromethyl)-1H-1,2,4-triazol-5-yl]imidazo[1,2-a]pyrimidine-6-carbonitrile] | 7.30 | 398 |
| O=C(O)CCOC(=O)OCn1cnc(-c2c(-c3nc(C(F)(F)F)nn3COC(=O)OCCC(=O)O)nc3ncccn23)c1 [Example 31, 3-({[(4-{2-[1-({[(2-carboxyethoxy)carbonyl]oxy}methyl)-3-(trifluoromethyl)-1H-1,2,4-triazol-5-yl]imidazo[1,2-a]pyrimidin-3-yl}-1H-imidazol-1-yl)methoxy]carbonyl}oxy)propanoic acid, trifluoroacetic acid salt] | 5.70 | 5010 |
| COCC(F)(F)c1ccn2c(-c3cnc[nH]3)c(-c3nc(C(F)(F)F)n[nH]3)nc2n1 [Example 19, 5-[7-(1,1-difluoro-2-methoxyethyl)-3-(1H-imidazol-5-yl)imidazo[1,2-a]pyrimidin-2-yl]-3-(trifluoromethyl)-1H-1,2,4-triazole] | 8.20 | 398 |
| OCCCCCOCc1cnc2nc(-c3nc(C(F)(F)F)n[nH]3)c(-c3cnc[nH]3)n2c1 [Example 142, 5-{[3-(1H-imidazol-5-yl)-2-[3-(trifluoromethyl)-1H-1,2,4-triazol-5-yl]imidazo[1,2-a]pyrimidin-6-yl]methoxy}pentan-1-ol] | 8.40 | 794 |
| FC(F)(F)c1n[nH]c(-c2nc3nc4c(cn3c2-c2c[nH]cn2)C2CCC(C4)O2)n1 (stereo not shown) [Example 136, 5-(1H-imidazol-4-yl)-6-[3-(trifluoromethyl)-1H-1,2,4-triazol-5-yl]-15-oxa-4,7,9-triazatetracyclo[10.2.1.0^2,^10.0^4,^8]pentadeca-2,5,7,9-tetraene] | 8.10 | 316 |
| FC(F)(F)c1n[nH]c(-c2nc3ncc(COC4CCOC4)cn3c2-c2cnc[nH]2)n1 (stereo not shown) [Example 78, 5-[3-(1H-imidazol-5-yl)-6-[(oxolan-3-yloxy)methyl]imidazo[1,2-a]pyrimidin-2-yl]-3-(trifluoromethyl)-1H-1,2,4-triazole] | 8.10 | 398 |
| FC(F)(F)c1n[nH]c(-c2nc3ncc(COCC4CC45CCOC5)cn3c2-c2c[nH]cn2)n1 (stereo not shown) [Example 155, 5-[3-(1H-imidazol-4-yl)-6-[{{5-oxaspiro[2.4]heptan-1-yl}methoxy)methyl]imidazo[1,2-a]pyrimidin-2-yl]-3-(trifluoromethyl)-1H-1,2,4-triazole] | 8.10 | 501 |
| CC(C)(C)c1cnc2nc(-c3nc(C(F)(F)F)n[nH]3)c(-c3c[nH]cn3)n2c1 [Example 109, 5-[6-tert-butyl-3-(1H-imidazol-4-yl)imidazo[1,2-a]pyrimidin-2-yl]-3-(trifluoromethyl)-1H-1,2,4-triazole] | 8.30 | 1260 |
| FC(F)(F)c1n[nH]c(-c2nc3ncc(COCC(F)(F)C(F)(F)C(F)(F)F)cn3c2-c2cnc[nH]2)n1 [Example 123, 5-{6-[(2,2,3,3,4,4,4-heptafluorobutoxy)methyl]-3-(1H-imidazol-5-yl)imidazo[1,2-a]pyrimidin-2-yl}-3-(trifluoromethyl)-1H-1,2,4-triazole] | 8.20 | 1260 |
| FC(F)(F)c1n[nH]c(-c2nc3nc(Cl)ccn3c2-c2cnc[nH]2)n1 [Example 7, 5-[7-chloro-3-(1H-imidazol-5-yl)imidazo[1,2-a]pyrimidin-2-yl]-3-(trifluoromethyl)-1H-1,2,4-triazole, trifluoroacetic acid salt] | 8.20 | 1580 |
| COCC(C)COCc1cnc2nc(-c3nc(C(F)(F)F)n[nH]3)c(-c3cnc[nH]3)n2c1 (stereo not shown) [Example 127, 5-[3-(1H-imidazol-5-yl)-6-[(3-methoxy-2-methylpropoxy)methyl]imidazo[1,2-a]pyrimidin-2-yl]-3-(trifluoromethyl)-1H-1,2,4-triazole] | 8.10 | 251 |
| FC(F)(F)c1n[nH]c(-c2nc3ncc(Br)cn3c2-c2cnc[nH]2)n1 [Example 77, 5-[6-bromo-3-(1H-imidazol-5-yl)imidazo[1,2-a]pyrimidin-2-yl]-3-(trifluoromethyl)-1H-1,2,4-triazole] | 8.70 | 398 |
| CC(=O)N1Cc2cn3c(-c4cnc[nH]4)c(-c4nc(C(F)(F)F)n[nH]4)nc3nc2C1 [Example 68, 1-[12-(1H-imidazol-5-yl)-11-[3-(trifluoromethyl)-1H-1,2,4-triazol-5-yl]-1,5,8,10-tetraazatricyclo[7.3.0.0^3,^7]dodeca-2,7,9,11-tetraen-5-yl]ethan-1-one] | 8.30 | 1260 |
| FC(F)(F)c1n[nH]c(-c2nc3nc4c(cn3c2-c2cnc[nH]2)CCCC4)n1 [Example 134, 5-[3-(1H-imidazol-5-yl)-6H,7H,8H,9H-imidazo[2,1-b]quinazolin-2-yl]-3-(trifluoromethyl)-1H-1,2,4-triazole] | 8.40 | 398 |
| CNCc1cnc2nc(-c3nc(C(F)(F)F)n[nH]3)c(-c3cnc[nH]3)n2c1 [Example 75, {[3-(1H-imidazol-5-yl)-2-[3-(trifluoromethyl)-1H-1,2,4-triazol-5-yl]imidazo[1,2-a]pyrimidin-6-yl]methyl}(methyl)amine] | 8.00 | 631 |
| CN1CCc2nc3nc(-c4nc(C(F)(F)F)n[nH]4)c(-c4cnc[nH]4)n3cc2C1 [Example 73, 6-(1H-imidazol-5-yl)-11-methyl-5-[3-(trifluoromethyl)-1H-1,2,4-triazol-5-yl]-2,4,7,11-tetraazatricyclo[7.4.0.0^3,^7]trideca-1,3,5,8-tetraene] | 8.20 | 794 |
| FC(F)(F)c1n[nH]c(-c2nc3ncc(COCCn4cc(Cl)cn4)cn3c2-c2c[nH]cn2)n1 [Example 151, 5-(6-{[2-(4-chloro-1H-pyrazol-1-yl)ethoxy]methyl}-3-(1H-imidazol-4-yl)imidazo[1,2-a]pyrimidin-2-yl)-3-(trifluoromethyl)-1H-1,2,4-triazole] | – | 3980 |
| OCC1CN(Cc2ccn3c(-c4c[nH]cn4)c(-c4nc(C(F)(F)F)n[nH]4)nc3n2)C1 [Example 164, (1-{[3-(1H-imidazol-4-yl)-2-[3-(trifluoromethyl)-1H-1,2,4-triazol-5-yl]imidazo[1,2-a]pyrimidin-7-yl]methyl}azetidin-3-yl)methanol] | – | 6310 |
| FC(F)(F)c1ccn2c(-c3cn[nH]c3)c(-c3nc(C(F)(F)F)n[nH]3)nc2n1 [Example 93, 5-[3-(1H-pyrazol-4-yl)-7-(trifluoromethyl)imidazo[1,2-a]pyrimidin-2-yl]-3-(trifluoromethyl)-1H-1,2,4-triazole] | – | 2510 |
| CC(=O)N(C)Cc1cnc2nc(-c3nc(C(F)(F)F)n[nH]3)c(-c3cnc[nH]3)n2c1 [Example 76, N-{[3-(1H-imidazol-5-yl)-2-[3-(trifluoromethyl)-1H-1,2,4-triazol-5-yl]imidazo[1,2-a]pyrimidin-6-yl]methyl}-N-methylacetamide] | – | 5010 |
